Test results published in patent publication US20120202794A1 (priority 2011, published 2012).

Assays:
HCV Replicon 1b = assay: HCV inhibition assay, HCV replicon 1b (Clone A or ET-lunet cells; RT-PCR or luciferase reporter); format: cell-based; settings: Hepatitis C virus, 96 h, HCV replicon 1b; 4 days incubation; read-out: Replicon 1b potency EC90
Method in brief: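 Clone A (1500/well) or ET-lunet (3000/well) replicon cells treated with serially diluted compounds (0.5% DMSO, no G418) for 4 days at 37 °C. HCV RNA measured by one-step RT-PCR normalized to rRNA (ΔΔCt) or by luciferase luminescence versus DMSO controls; EC50/EC90 by curve fitting.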

[1] = Cell cytotoxicity assay (MTS), CC90 as reported in Table 1, cell line not stated; format: cell-based; settings: human; cell line not given
Method in brief: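 Compounds, serially diluted from 100 μM, were incubated 8 days at 37° C with Huh7, HepG2 or BxPC3 (2×10^3 cells/well) or CEM (5×10^3 cells/well). Viability was read by MTS, 2 h, absorbance 490 nm. CC90 (90% inhibition) was taken against untreated cells.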

Compound CC(C)C[C@H]1C(=O)N[C@@H](C2CCCC2)CN1Cc1cc(-c2ccc(F)cc2)on1 [Compound 208, (3S,6S)-6-cyclopentyl-4-((5-(4-fluorophenyl)isoxazol-3-yl)methyl)-3-isobutylpiperazin-2-one] has an EC90 (HCV Replicon 1b) of 0.21 µM and a CC90 at 8 days [1] of over 10 µM.

Work on CC(C)C[C@H]1C(=O)N[C@@H](CC2CC2)CN1Cc1cc(-c2ccc(Cl)cc2)on1 [Compound 209, (3S,6S)-4-((5-(4-chlorophenyl)isoxazol-3-yl)methyl)-6-(cyclopropylmethyl)-3-isobutylpiperazin-2-one] yielded an EC90 (HCV Replicon 1b) of 0.67 µM and a CC90 at 8 days [1] of over 10 µM.

In the case of CCC[C@H]1CN(Cc2cc(-c3ccc(Cl)cc3)on2)[C@@H](CC(C)C)C(=O)N1 [Compound 210, (3S,6S)-4-((5-(4-chlorophenyl)isoxazol-3-yl)methyl)-3-isobutyl-6-propylpiperazin-2-one], the EC90 (HCV Replicon 1b) is reported as 0.32 µM and the CC90 at 8 days [1] is reported as over 10 µM.

In the case of CC(C)C[C@H]1C(=O)N[C@@H](C2CCCCC2)CN1Cc1cc(-c2ccc(Cl)cc2)on1 [Compound 211, (3S,6S)-4-((5-(4-chlorophenyl)isoxazol-3-yl)methyl)-6-cyclohexyl-3-isobutylpiperazin-2-one], the EC90 (HCV Replicon 1b) is reported as 0.41 µM and the CC90 at 8 days [1] is reported as over 10 µM.

With CC(C)C[C@H]1C(=O)N[C@@H](C2CCCC2)CN1Cc1cc(-c2ccc(Cl)cc2)on1 [Compound 212, (3S,6S)-4-((5-(4-chlorophenyl)isoxazol-3-yl)methyl)-6-cyclopentyl-3-isobutylpiperazin-2-one] the EC90 (HCV Replicon 1b) was 0.26 µM and the CC90 at 8 days [1] was over 10 µM.

Compound CCC(C)[C@H]1CN(Cc2cc(-c3ccc(F)cc3)on2)[C@@H](CC(C)C)C(=O)N1 (stereo partly drawn) [Compound 214] has an EC90 (HCV Replicon 1b) of 0.72 µM and a CC90 at 8 days [1] of over 10 µM.

Work on CC(C)C[C@H]1C(=O)N[C@@H](c2ccccc2)CN1Cc1cc(-c2ccc(F)cc2)on1 [Compound 215, (3S,6S)-4-((5-(4-fluorophenyl)isoxazol-3-yl)methyl)-3-isobutyl-6-phenylpiperazin-2-one] yielded an EC90 (HCV Replicon 1b) of 0.19 µM and a CC90 at 8 days [1] of over 10 µM.

In the case of CC(C)C[C@H]1C(=O)N[C@@H](C2CC2)CN1Cc1cc(-c2ccc(F)cc2)on1 [Compound 216, (3S,6S)-6-cyclopropyl-4-((5-(4-fluorophenyl)isoxazol-3-yl)methyl)-3-isobutylpiperazin-2-one], the EC90 (HCV Replicon 1b) is reported as 1.6 µM and the CC90 at 8 days [1] is reported as over 10 µM.

With CSC[C@H]1CN(Cc2cc(-c3ccc(F)cc3)on2)[C@@H](CC(C)C)C(=O)N1 [Compound 217, (3S,6R)-4-[5-(4-Fluoro-phenyl)-isoxazol-3-ylmethyl]-3-isobutyl-6-methylsulfanylmethyl-piperazin-2-one] the EC90 (HCV Replicon 1b) was 0.82 µM and the CC90 at 8 days [1] was over 10 µM.

CSC[C@H]1CN(Cc2cc(-c3ccc(Cl)cc3)on2)[C@@H](CC(C)C)C(=O)N1 [Compound 218, (3S,6R)-4-((5-(4-chlorophenyl)isoxazol-3-yl)methyl)-3-isobutyl-6-((methylthio)methyl)piperazin-2-one] showed an EC90 (HCV Replicon 1b) of 0.75 µM and a CC90 at 8 days [1] of over 10 µM.

Compound CC(C)C[C@H]1C(=O)N[C@@H](c2ccccc2)CN1Cc1cc(-c2ccc(Cl)cc2)on1 [Compound 219, (3S,6S)-4-((5-(4-chlorophenyl)isoxazol-3-yl)methyl)-3-isobutyl-6-phenylpiperazin-2-one] has an EC90 (HCV Replicon 1b) of 4.5 µM and a CC90 at 8 days [1] of over 10 µM.

CC(C)C[C@H]1CN(Cc2ccc(F)cc2C(F)(F)F)[C@@H](CC(C)C)C(=O)N1 [Compound 220, (3S,6S)-4-(4-fluoro-2-(trifluoromethyl)benzyl)-3,6-diisobutylpiperazin-2-one] showed an EC90 (HCV Replicon 1b) of 8.35 µM and a CC90 at 8 days [1] of over 10 µM.

With CC(C)C[C@H]1CN(Cc2ccc(F)c(C(F)(F)F)c2)[C@@H](CC(C)C)C(=O)N1 [Compound 221, (3S,6S)-4-(4-fluoro-3-(trifluoromethyl)benzyl)-3,6-diisobutylpiperazin-2-one] the EC90 (HCV Replicon 1b) was over 10 µM and the CC90 at 8 days [1] was over 10 µM.

For CC(C)C[C@H]1CN(Cc2cc(F)ccc2F)[C@@H](CC(C)C)C(=O)N1 [Compound 222, (3S,6S)-4-(2,5-difluorobenzyl)-3,6-diisobutylpiperazin-2-one], the EC90 (HCV Replicon 1b) was 9.7 µM and the CC90 at 8 days [1] was over 10 µM.

In the case of CC(C)C[C@H]1CN(Cc2cc(C(F)(F)F)cc(C(F)(F)F)c2)[C@@H](CC(C)C)C(=O)N1 [Compound 223, (3S,6S)-4-(3,5-Bis-trifluoromethyl-benzyl)-3,6-diisobutyl-piperazin-2-one], the EC90 (HCV Replicon 1b) is reported as 4.49 µM and the CC90 at 8 days [1] is reported as over 10 µM.

With CC(C)C[C@H]1CN(Cc2c(F)cccc2F)[C@@H](CC(C)C)C(=O)N1 [Compound 224, (3S,6S)-4-(2,6-Difluoro-benzyl)-3,6-diisobutyl-piperazin-2-one] the EC90 (HCV Replicon 1b) was 8.36 µM and the CC90 at 8 days [1] was over 10 µM.

For CCc1ccc(CN2C[C@H](CC(C)C)NC(=O)[C@@H]2CC(C)C)cc1 [Compound 225, (3S,6S)-4-(4-Ethyl-benzyl)-3,6-diisobutyl-piperazin-2-one], the EC90 (HCV Replicon 1b) was 3.51 µM and the CC90 at 8 days [1] was over 10 µM.

For CC(C)C[C@H]1CN(Cc2ccc(Cl)c(Cl)c2)[C@@H](CC(C)C)C(=O)N1 [Compound 226, (3S,6S)-4-(3,4-Dichloro-benzyl)-3,6-diisobutyl-piperazin-2-one], the EC90 (HCV Replicon 1b) was 8.87 µM and the CC90 at 8 days [1] was over 10 µM.

Compound CC(C)C[C@H]1CN(Cc2ccc(F)c(Cl)c2)[C@@H](CC(C)C)C(=O)N1 [Compound 227, (3S,6S)-4-(3-Chloro-4-fluoro-benzyl)-3,6-diisobutyl-piperazin-2-one] has an EC90 (HCV Replicon 1b) of over 10 µM and a CC90 at 8 days [1] of over 10 µM.

Work on CC(C)C[C@H]1CN(Cc2ccc(OC(F)(F)F)cc2)[C@@H](CC(C)C)C(=O)N1 [Compound 228, (3S,6S)-3,6-Diisobutyl-4-(4-trifluoromethoxy-benzyl)-piperazin-2-one] yielded an EC90 (HCV Replicon 1b) of 3.26 µM and a CC90 at 8 days [1] of over 10 µM.

CC(C)C[C@H]1CN(Cc2cc(C(F)(F)F)ccc2Cl)[C@@H](CC(C)C)C(=O)N1 [Compound 229, (3S,6S)-4-(2-Chloro-5-trifluoromethyl-benzyl)-3,6-diisobutyl-piperazin-2-one] gave an EC90 (HCV Replicon 1b) of 5.12 µM and a CC90 at 8 days [1] of over 10 µM.

CCC[C@H]1CN(C(=O)[C@@H]2C[C@H]2c2ccccc2)[C@@H](CC(C)C)C(=O)N1 [Compound 230, (3S,6S)-3-isobutyl-4-((1R,2R)-2-phenylcyclopropanecarbonyl)-6-propylpiperazin-2-one] showed an EC90 (HCV Replicon 1b) of 0.57 µM and a CC90 at 8 days [1] of over 10 µM.

Compound CC(C)C[C@H]1C(=O)N[C@@H](C2CCCCC2)CN1C(=O)[C@@H]1C[C@H]1c1ccccc1 [Compound 231, (3S,6S)-6-cyclohexyl-3-isobutyl-4-((1R,2R)-2-phenylcyclopropanecarbonyl)-piperazin-2-one] has an EC90 (HCV Replicon 1b) of 0.93 µM and a CC90 at 8 days [1] of over 10 µM.

Work on CC(C)C[C@H]1C(=O)N[C@@H](C2CCCC2)CN1C(=O)[C@@H]1C[C@H]1c1ccccc1 [Compound 232, (3S,6S)-6-cyclopentyl-3-isobutyl-4-((1R,2R)-2-phenylcyclopropanecarbonyl)-piperazin-2-one] yielded an EC90 (HCV Replicon 1b) of 0.69 µM and a CC90 at 8 days [1] of over 10 µM.

CC(C)C[C@H]1C(=O)N[C@@H](C(C)C)CN1C(=O)[C@@H]1C[C@H]1c1ccccc1 [Compound 233, (3S,6S)-3-isobutyl-6-isopropyl-4-((1R,2R)-2-phenylcyclopropanecarbonyl)piperazin-2-one] showed an EC90 (HCV Replicon 1b) of 0.93 µM and a CC90 at 8 days [1] of over 10 µM.

CC(C)C[C@H]1C(=O)N[C@@H](c2ccccc2)CN1C(=O)[C@@H]1C[C@H]1c1ccccc1 [Compound 234, (3S,6S)-3-isobutyl-6-phenyl-4-((1R,2R)-2-phenylcyclopropanecarbonyl)piperazin-2-one] gave an EC90 (HCV Replicon 1b) of 0.3 µM and a CC90 at 8 days [1] of over 10 µM.

In the case of CC(C)C[C@H]1C(=O)N[C@@H](C2CC2)CN1C(=O)[C@@H]1C[C@H]1c1ccccc1 [Compound 235, (3S,6S)-6-cyclopropyl-3-isobutyl-4-((1R,2R)-2-phenylcyclopropanecarbonyl)-piperazin-2-one], the EC90 (HCV Replicon 1b) is reported as 4.2 µM and the CC90 at 8 days [1] is reported as over 10 µM.

Compound CC(C)C[C@H]1CN(C(=O)[C@@H]2C[C@H]2c2ccc(F)cc2)[C@@H](CC(C)C)C(=O)N1 [Compound 236, (3S,6S)-4-[(1R,2R)-2-(4-Fluoro-phenyl)-cyclopropanecarbonyl]-3,6-diisobutyl-piperazin-2-one] has an EC90 (HCV Replicon 1b) of 0.08 µM and a CC90 at 8 days [1] of over 10 µM.

In the case of CC(C)C[C@H]1CN(C(=O)[C@@H]2C[C@H]2c2ccc(Cl)cc2)[C@@H](CC(C)C)C(=O)N1 [Compound 237, (3S,6S)-4-[(1R,2R)-2-(4-Chloro-phenyl)-cyclopropanecarbonyl]-3,6-diisobutyl-piperazin-2-one], the EC90 (HCV Replicon 1b) is reported as 0.27 µM and the CC90 at 8 days [1] is reported as over 10 µM.

Work on CC(C)C[C@H]1CN(C(=O)[C@@H]2C[C@H]2c2ccc(F)c(F)c2)[C@@H](CC(C)C)C(=O)N1 [Compound 238, (3S,6S)-4-[(1R,2R)-2-(3,4-Difluoro-phenyl)-cyclopropanecarbonyl]-3,6-diisobutyl-piperazin-2-one] yielded an EC90 (HCV Replicon 1b) of 0.59 µM and a CC90 at 8 days [1] of over 10 µM.

COc1ccc([C@@H]2C[C@H]2C(=O)N2C[C@H](CC(C)C)NC(=O)[C@@H]2CC(C)C)cc1 [Compound 239, (3S,6S)-3,6-Diisobutyl-4-[(1R,2R)-2-(4-methoxy-phenyl)-cyclopropanecarbonyl]-piperazin-2-one] gave an EC90 (HCV Replicon 1b) of 0.96 µM and a CC90 at 8 days [1] of over 10 µM.

CCC[C@H]1CN(C(=O)[C@@H]2C[C@H]2c2ccc(F)cc2)[C@@H](CC(C)C)C(=O)N1 [Compound 240, (3S,6S)-4-[(1R,2R)-2-(4-Fluoro-phenyl)-cyclopropanecarbonyl]-3-isobutyl-6-propyl-piperazin-2-one] showed an EC90 (HCV Replicon 1b) of 0.1 µM and a CC90 at 8 days [1] of over 10 µM.

CC(C)C[C@H]1C(=O)N[C@@H](C2CCCCC2)CN1C(=O)[C@@H]1C[C@H]1c1ccc(F)cc1 [Compound 241, (3S,6S)-6-Cyclohexyl-4-[(1R,2R)-2-(4-fluoro-phenyl)-cyclopropanecarbonyl]-3-isobutyl-piperazin-2-one] showed an EC90 (HCV Replicon 1b) of 0.15 µM and a CC90 at 8 days [1] of over 10 µM.
